Where a name gives a salt, the structure may show the parent alone. Read-outs that look alike come from different tables or passages of the source.
Assays:
Parameters in all cases: species or system AML cell lines (8); Primary HTS, single concentration about 10 uM, Cell Titer Glo viability; log10 luminescence, per cent inhibition relative to cycloheximide control
Settings in all cases: 72 h, relative to cycloheximide control, log10 luminescence, inhibitor
MV4-11 = test system: MV4-11
U937 = test system: U937
CMS = test system: CMS
CHRF288-11 = test system: CHRF288-11
M07e = test system: M07e
CMK = test system: CMK
MOLM-13 = test system: MOLM-13
ML-2 = test system: ML-2

Compound	MV4-11 %inh (MV4-11; MV4-11 %inh, 10 µM)	U937 %inh (U937; U937 %inh, 10 µM)	CMS %inh (CMS; CMS %inh, 10 µM)	CHRF288-11 %inh (CHRF288-11; CHRF288-11 %inh, 10 µM)	M07e %inh (M07e; M07e %inh, 10 µM)	CMK %inh (CMK; CMK %inh, 10 µM)	MOLM-13 %inh (MOLM-13; MOLM-13 %inh, 10 µM)	ML-2 %inh (ML-2; ML-2 %inh, 10 µM)	MV4-11 %inh (MV4-11)	U937 %inh (U937)	CMS %inh (CMS)	CHRF288-11 %inh (CHRF288-11)	M07e %inh (M07e)	CMK %inh (CMK)	MOLM-13 %inh (MOLM-13)	ML-2 %inh (ML-2)
CC1/C=C/C=C/C=C/C=C/C=C/C=C/C=C/C(OC2O[C@H](C)[C@@H](O)[C@H](N)[C@@H]2O)CC(O)C(C(=O)O)C(O)CC(=O)CC(O)CC(O)CC(O)CC(=O)CCCC(=O)CC(=O)OC1C(C)CC(C)C(O)CC(=O)c1ccc(N)cc1 (single isomer, unassigned) [SJ000565161-1, CANDICIDIN]	39.81%	16.5%	12.57%	56.49%	2.094%	120.6%	72.78%	42.43%	–	–	–	–	–	–	–	–
CC1/C=C/C=C/C=C/C=C/C=C/C=C/C=C/C(OC2O[C@H](C)[C@@H](O)[C@H](N)[C@@H]2O)CC(O)C(C(=O)O)C(O)CC(=O)CC(O)CC(O)CC(O)CC(=O)CCCC(=O)CC(=O)OC1C(C)CC(C)C(O)CC(=O)c1ccc(N)cc1 (single isomer, unassigned) [SJ000565161-2, CANDICIDIN]	0.2404%	-1.702%	0.8019%	84.68%	-1.61%	-1.968%	0.5936%	-0.08515%	–	–	–	–	–	–	–	–
O=c1ncnc2n([C@H]3O[C@@H](CO)[C@H](O)[C@@H]3O)[nH]cc1-2 (stereo in doubt) [SJ000562682-1, ALLOPURINOL RIBOSIDE]	–	–	–	–	–	–	–	–	0.9814%	0.8426%	-1.89%	1.868%	-1.058%	1.077%	4.507%	0.3274%
CO[C@H]1/C=C/O[C@@]2(C)Oc3c(C)c(O)c4c(O)c(c(/C=N/N5CCN(C)CC5)c(O)c4c3C2=O)NC(=O)/C(C)=C\C=C\[C@H](C)[C@H](O)[C@@H](C)[C@@H](O)[C@@H](C)[C@H](OC(C)=O)[C@@H]1C [SJ000000850-5, RIFAMPIN | RIFAMPICIN]	3.37%	3.295%	9.631%	0.3238%	0.4502%	-4.011%	-1.813%	5.116%	–	–	–	–	–	–	–	–
CO[C@H]1/C=C/O[C@@]2(C)Oc3c(C)c(O)c4c(O)c(c(/C=N/N5CCN(C)CC5)c(O)c4c3C2=O)NC(=O)/C(C)=C\C=C\[C@H](C)[C@H](O)[C@@H](C)[C@@H](O)[C@@H](C)[C@H](OC(C)=O)[C@@H]1C [SJ000000850-6, RIFAMPIN | RIFAMPICIN]	5.189%	3.577%	11.96%	0.456%	0.5367%	-0.3986%	5.052%	3.762%	–	–	–	–	–	–	–	–
CO[C@H]1/C=C/O[C@@]2(C)Oc3c(C)c(O)c4c(O)c(c(/C=N/N5CCN(C)CC5)c(O)c4c3C2=O)NC(=O)/C(C)=C\C=C\[C@H](C)[C@H](O)[C@@H](C)[C@@H](O)[C@@H](C)[C@H](OC(C)=O)[C@@H]1C [SJ000000850-7, RIFAMPIN | RIFAMPICIN]	6.955%	2.422%	16.96%	22.26%	2.856%	0.4994%	4.02%	2.607%	–	–	–	–	–	–	–	–
COc1cc2nc(N3CCN(C(=O)C4COc5ccccc5O4)CC3)nc(N)c2cc1OC (stereo not drawn) [SJ000113084-6, DOXAZOSIN MESYLATE]	–	–	–	–	–	–	–	–	-1.195%	1.071%	0.401%	36.53%	-1.557%	9.497%	9.986%	-0.964%
N#Cc1c(NC(=O)c2ccccc2F)sc2c1CCCC2 [SJ000121296-2, R15619/66/1]	–	–	–	–	–	–	–	–	-1.785%	21.81%	2.048%	1.937%	15.03%	11.25%	0.9257%	8%
CC(=O)[C@H]1CC[C@H]2[C@@H]3CC=C4C[C@@H](O)CC[C@]4(C)[C@H]3CC[C@]12C [SJ000281777-6, PREGNENOLONE]	–	–	–	–	–	–	–	–	6.672%	3.219%	6.885%	0.2511%	1.706%	-1.238%	2.085%	0.5574%
